In patent US10590140B2, “Tetrahydropyrimidodiazepine and dihydropyridodiazepine compounds for treating pain and pain related conditions” (ESTEVE PHARMACEUTICALS, S.A., priority 2016, dated 2020) one finds Ki data, which are given here for 22 molecules.

For orientation: Ki means the equilibrium dissociation constant of an inhibitor or competing ligand from its target.

For experiment [1], the target named is human norepinephrine transporter (NET) (Homo sapiens (Human), UniProt P23975). Kind of experiment: Binding assay to human norepinephrine transporter (NET) ([3H]-Nisoxetin). The following applies: Table 2, dual compounds; [3H]-Nisoxetin binding. The gist of the method:
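NET-enriched membranes (5 μg) incubated with 5 nM [3H]-nisoxetin in 50 mM Tris-HCl, 120 mM NaCl, 5 mM KCl, pH 7.4, 60 min at 4 °C. Bound ligand separated by filtration on PEI-soaked GF/C and counted by scintillation; nonspecific binding defined with 1 μM competitor.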

The target in experiment [2] is human α2δ-1 subunit of Cav2.2 calcium channel (Homo sapiens (Human), UniProt P54289). The experiment is described as follows: Binding assay to human α2δ-1 subunit of Cav2.2 calcium channel ([3H]-Gabapentin). The following applies: read-out: Ki (nM) α2δ-1. The method in brief:
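[3H]-gabapentin binding, 60 min at 27° C; nonspecific binding defined with 10 μM pregabalin. Terminated by filtration on PEI-presoaked GF/C filters, ice-cold 50 mM Tris-HCl pH 7.4 washes, then scintillation counting.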

The mark [3] stands for this setting: Table 2, dual compounds, [3H]-Gabapentin binding.
The mark [4] stands for this setting: binding to α2δ-1, [3H]-Gabapentin.

Each structure is given as a SMILES string. Like-named read-outs stand apart in the source and are kept apart here.

human α2δ-1 subunit of Cav2.2 calcium channel, sequence (P54289 25-1103): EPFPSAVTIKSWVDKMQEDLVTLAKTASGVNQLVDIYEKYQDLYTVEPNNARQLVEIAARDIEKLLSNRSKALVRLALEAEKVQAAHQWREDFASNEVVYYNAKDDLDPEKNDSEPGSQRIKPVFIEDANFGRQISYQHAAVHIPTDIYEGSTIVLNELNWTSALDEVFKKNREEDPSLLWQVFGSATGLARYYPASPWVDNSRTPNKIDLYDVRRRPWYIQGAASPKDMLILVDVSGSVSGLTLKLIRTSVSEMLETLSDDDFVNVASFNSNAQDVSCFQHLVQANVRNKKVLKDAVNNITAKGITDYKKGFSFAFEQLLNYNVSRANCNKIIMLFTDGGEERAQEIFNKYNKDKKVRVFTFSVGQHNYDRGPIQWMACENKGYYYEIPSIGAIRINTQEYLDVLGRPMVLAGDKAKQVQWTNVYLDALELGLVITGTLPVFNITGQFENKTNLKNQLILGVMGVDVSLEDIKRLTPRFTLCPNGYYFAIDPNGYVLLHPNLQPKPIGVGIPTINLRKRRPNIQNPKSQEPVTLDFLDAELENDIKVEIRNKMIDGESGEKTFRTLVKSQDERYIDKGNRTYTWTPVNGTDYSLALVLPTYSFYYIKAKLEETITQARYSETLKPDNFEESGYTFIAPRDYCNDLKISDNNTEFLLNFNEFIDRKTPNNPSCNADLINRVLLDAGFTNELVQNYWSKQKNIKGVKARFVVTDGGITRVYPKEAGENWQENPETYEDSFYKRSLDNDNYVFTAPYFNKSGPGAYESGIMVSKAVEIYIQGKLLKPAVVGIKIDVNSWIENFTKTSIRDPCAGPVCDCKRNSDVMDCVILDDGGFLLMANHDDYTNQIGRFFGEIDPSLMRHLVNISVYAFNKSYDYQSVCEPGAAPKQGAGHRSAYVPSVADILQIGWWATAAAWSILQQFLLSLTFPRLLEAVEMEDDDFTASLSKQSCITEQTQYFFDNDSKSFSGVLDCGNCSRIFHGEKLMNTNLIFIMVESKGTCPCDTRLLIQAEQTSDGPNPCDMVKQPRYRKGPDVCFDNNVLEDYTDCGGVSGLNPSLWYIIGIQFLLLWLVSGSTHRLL
human norepinephrine transporter (NET), sequence (P23975 whole entry): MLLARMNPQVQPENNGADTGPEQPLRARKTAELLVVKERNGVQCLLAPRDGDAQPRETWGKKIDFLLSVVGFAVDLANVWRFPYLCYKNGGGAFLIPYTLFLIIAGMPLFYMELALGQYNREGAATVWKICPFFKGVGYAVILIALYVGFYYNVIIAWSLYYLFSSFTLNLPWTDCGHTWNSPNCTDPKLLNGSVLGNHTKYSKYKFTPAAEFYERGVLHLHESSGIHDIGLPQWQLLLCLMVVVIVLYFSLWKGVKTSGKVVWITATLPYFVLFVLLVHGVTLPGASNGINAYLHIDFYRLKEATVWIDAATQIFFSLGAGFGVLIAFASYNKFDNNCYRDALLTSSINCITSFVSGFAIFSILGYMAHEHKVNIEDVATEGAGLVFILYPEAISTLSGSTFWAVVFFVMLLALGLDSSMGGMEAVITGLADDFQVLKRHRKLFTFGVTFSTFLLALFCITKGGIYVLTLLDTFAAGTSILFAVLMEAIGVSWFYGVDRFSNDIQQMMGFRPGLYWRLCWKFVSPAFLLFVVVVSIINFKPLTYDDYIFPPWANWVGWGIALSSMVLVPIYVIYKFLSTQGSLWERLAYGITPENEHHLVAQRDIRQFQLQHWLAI

For `CCNc1ncc2c(n1)N(C)CCN(c1cccc(-n3cc(CN(C)Cc4ccc(F)cc4)nn3)c1)C2=O` [Example 287, 2-(ethylamino)-6-(3-(4-(((4-fluorobenzyl)(methyl)amino)methyl)-1H-1,2,3-triazol-1-yl)phenyl)-9-methyl-6,7,8,9-tetrahydro-5H-pyrimido[4,5-e][1,4]diazepin-5-one], the Ki in experiment [1] is < 100 nM; in experiment [2] (setting [3]), 500 to 3000 nM; in experiment [2] (setting [4]) it was 500 to 3000 nM.
For the molecule `CCNc1ncc2c(n1)N(C)CCN(c1cccc(-n3cc(CN(C)Cc4ccccn4)nn3)c1)C2=O` [Example 288, 2-(ethylamino)-9-methyl-6-(3-(4-((methyl(pyridin-2-ylmethyl)amino)methyl)-1H-1,2,3-triazol-1-yl)phenyl)-6,7,8,9-tetrahydro-5H-pyrimido[4,5-e][1,4]diazepin-5-one], the Ki in experiment [1] lay within 100 to 500 nM; in experiment [2] (setting [3]), 500 to 3000 nM; in experiment [2] (setting [4]), 500 to 3000 nM.
As for `CNCC[C@H](Oc1cccc(N2CCN(C)c3cc(N)ncc3C2=O)c1)c1cccs1` [Example 304, (S)-8-amino-1-methyl-4-(3-(3-(methylamino)-1-(thiophen-2-yl)propoxy)phenyl)-1,2,3,4-tetrahydro-5H-pyrido[4,3-e][1,4]diazepin-5-one], the Ki in experiment [1], in experiment [2] (setting [3]) and in experiment [2] (setting [4]) was 100 to 500 nM each time.
Take `CNCC[C@H](Oc1ccc(CN2CCN(C)c3cc(N)ncc3C2=O)cc1)c1cccs1` [Example 305, (S)-8-amino-1-methyl-4-(4-(3-(methylamino)-1-(thiophen-2-yl)propoxy)benzyl)-1,2,3,4-tetrahydro-5H-pyrido[4,3-e][1,4]diazepin-5-one]: the Ki in experiment [1], in experiment [2] (setting [3]) and in experiment [2] (setting [4]) was 100 to 500 nM throughout.
Consider `CNCCC(Oc1cccc(N2CCN(C)c3cc(C)ncc3C2=O)c1)c1cccs1` (stereo not drawn) [Example 307, 1,8-dimethyl-4-(3-(3-(methylamino)-1-(thiophen-2-yl)propoxy)phenyl)-1,2,3,4-tetrahydro-5H-pyrido[4,3-e][1,4]diazepin-5-one], for which the Ki in experiment [1], in experiment [2] (setting [3]) and in experiment [2] (setting [4]) was 100 to 500 nM throughout.
`CNCC[C@H](Oc1ccc(CN2CCN(C)c3cc(C)ncc3C2=O)cc1)c1cccs1` [Example 308, (S)-1,8-dimethyl-4-(4-(3-(methylamino)-1-(thiophen-2-yl)propoxy)benzyl)-1,2,3,4-tetrahydro-5H-pyrido[4,3-e][1,4]diazepin-5-one]: the Ki in experiment [1], in experiment [2] (setting [3]) and in experiment [2] (setting [4]) was 100 to 500 nM in each case.
On to `CNCCC(OCc1ccc(N2CCN(C)c3nc(SC)ncc3C2=O)cc1)c1ccccc1` (stereo not drawn) [Example 315, 9-methyl-6-(4-((3-(methylamino)-1-phenylpropoxy)methyl)phenyl)-2-(methylthio)-6,7,8,9-tetrahydro-5H-pyrimido[4,5-e][1,4]diazepin-5-one], for which the Ki in experiment [1] is < 100 nM; in experiment [2] (setting [3]), > 3000 nM; in experiment [2] (setting [4]) it was > 3000 nM.
For the molecule `CNCCC(Oc1ccc(N2CCN(C)c3nc(SC)ncc3C2=O)cc1)c1ccccc1` (stereo not drawn) [Example 316, 9-methyl-6-(4-(3-(methylamino)-1-phenylpropoxy)phenyl)-2-(methylthio)-6,7,8,9-tetrahydro-5H-pyrimido[4,5-e][1,4]diazepin-5-one], the Ki in experiment [1] is 500 to 1000 nM; in experiment [2] (setting [3]), > 3000 nM; in experiment [2] (setting [4]), > 3000 nM.
In the case of `CNCC(OCc1ccc(N2CCN(C)c3nc(SC)ncc3C2=O)cc1)c1ccccc1` (stereo not drawn) [Example 321, 9-methyl-6-(4-((2-(methylamino)-1-phenylethoxy)methyl)phenyl)-2-(methylthio)-6,7,8,9-tetrahydro-5H-pyrimido[4,5-e][1,4]diazepin-5-one], the Ki in experiment [1] is < 100 nM; in experiment [2] (setting [3]) it was > 3000 nM; in experiment [2] (setting [4]), > 3000 nM.
Take `CNCCC(OCc1cccc(N2CCN(C)c3nc(C(F)(F)F)ncc3C2=O)c1)c1ccccc1` (stereo not drawn) [Example 322, 9-methyl-6-(3-((3-(methylamino)-1-phenylpropoxy)methyl)phenyl)-2-(trifluoromethyl)-6,7,8,9-tetrahydro-5H-pyrimido[4,5-e][1,4]diazepin-5-one]: the Ki is 100 to 500 nM in experiment [1], > 3000 nM in experiment [2] (setting [3]) and > 3000 nM in experiment [2] (setting [4]).
`CNCCC(OCc1ccc(N2CCN(C)c3nc(SC)ncc3C2=O)cc1)c1cccs1` (stereo not drawn) [Example 328, 9-methyl-6-(4-((3-(methylamino)-1-(thiophen-2-yl)propoxy)methyl)phenyl)-2-(methylthio)-6,7,8,9-tetrahydro-5H-pyrimido[4,5-e][1,4]diazepin-5-one]: the Ki in experiment [1] was < 100 nM; in experiment [2] (setting [3]) it was > 3000 nM; in experiment [2] (setting [4]) it was > 3000 nM.
For the molecule `CNCCC(OCc1cccc(N2CCN(C)c3nc(C(F)(F)F)ncc3C2=O)c1)c1cccs1` (stereo not drawn) [Example 330, 9-methyl-6-(3-((3-(methylamino)-1-(thiophen-2-yl)propoxy)methyl)phenyl)-2-(trifluoromethyl)-6,7,8,9-tetrahydro-5H-pyrimido[4,5-e][1,4]diazepin-5-one], the Ki lay in the range of 100 to 500 nM in experiment [1], 500 to 3000 nM in experiment [2] (setting [3]) and 500 to 3000 nM in experiment [2] (setting [4]).
As to `CNCCC(OCc1cccc(N2CCN(C)c3nc(NCc4ccccc4)ncc3C2=O)c1)c1ccccc1` (stereo not drawn) [Example 335, 2-(benzylamino)-9-methyl-6-(3-((3-(methylamino)-1-phenylpropoxy)methyl)phenyl)-6,7,8,9-tetrahydro-5H-pyrimido[4,5-e][1,4]diazepin-5-one], the Ki was < 100 nM in experiment [1], 500 to 3000 nM in experiment [2] (setting [3]) and 500 to 3000 nM in experiment [2] (setting [4]).
Take `CNCCC(OCc1cccc(N2CCN(C)c3nc(N(C)Cc4ccccn4)ncc3C2=O)c1)c1ccccc1` (stereo not drawn) [Example 336, 9-methyl-2-(methyl(pyridin-2-ylmethyl)amino)-6-(3-((3-(methylamino)-1-phenylpropoxy)methyl)phenyl)-6,7,8,9-tetrahydro-5H-pyrimido[4,5-e][1,4]diazepin-5-one]: the Ki fell in the range of 100 to 500 nM in experiment [1], 500 to 3000 nM in experiment [2] (setting [3]) and 500 to 3000 nM in experiment [2] (setting [4]).
For the molecule `CCNc1ncc2c(n1)N(C)CCN(c1ccc(COC(CNC)c3ccccc3)cc1)C2=O` (stereo not drawn) [Example 340, 2-(ethylamino)-9-methyl-6-(4-((2-(methylamino)-1-phenylethoxy)methyl)phenyl)-6,7,8,9-tetrahydro-5H-pyrimido[4,5-e][1,4]diazepin-5-one], the Ki is < 100 nM in experiment [1], > 3000 nM in experiment [2] (setting [3]) and > 3000 nM in experiment [2] (setting [4]).
As to `CNCC[C@@H](OCc1cccc(N2CCN(C)c3nc(N(C)Cc4ccccn4)ncc3C2=O)c1)c1ccccc1` [Example 341, (R)-9-methyl-2-(methyl(pyridin-2-ylmethyl)amino)-6-(3-((3-(methylamino)-1-phenylpropoxy)methyl)phenyl)-6,7,8,9-tetrahydro-5H-pyrimido[4,5-e][1,4]diazepin-5-one], the Ki in experiment [1], in experiment [2] (setting [3]) and in experiment [2] (setting [4]) was 100 to 500 nM each time.
As for `CNCC[C@@H](OCc1cccc(N2CCN(C)c3nc(N(C)Cc4cccnc4)ncc3C2=O)c1)c1ccccc1` [Example 342, (R)-9-methyl-2-(methyl(pyridin-3-ylmethyl)amino)-6-(3-((3-(methylamino)-1-phenylpropoxy)methyl)phenyl)-6,7,8,9-tetrahydro-5H-pyrimido[4,5-e][1,4]diazepin-5-one], the Ki in experiment [1], in experiment [2] (setting [3]) and in experiment [2] (setting [4]) was 100 to 500 nM in each case.
In the case of `CNCC[C@@H](OCc1cccc(N2CCN(C)c3nc(NCc4ccccn4)ncc3C2=O)c1)c1ccccc1` [Example 343, (R)-9-methyl-6-(3-((3-(methylamino)-1-phenylpropoxy)methyl)phenyl)-2-((pyridin-2-ylmethyl)amino)-6,7,8,9-tetrahydro-5H-pyrimido[4,5-e][1,4]diazepin-5-one], the Ki in experiment [1], in experiment [2] (setting [3]) and in experiment [2] (setting [4]) was 100 to 500 nM each time.
Take `CCNc1ncc2c(n1)N(C)CCN(c1ccc(COC(CCNC)c3cccs3)cc1)C2=O` (stereo not drawn) [Example 348, 2-(ethylamino)-9-methyl-6-(4-((3-(methylamino)-1-(thiophen-2-yl)propoxy)methyl)phenyl)-6,7,8,9-tetrahydro-5H-pyrimido[4,5-e][1,4]diazepin-5-one]: the Ki in experiment [1] was 100 to 500 nM; in experiment [2] (setting [3]), > 3000 nM; in experiment [2] (setting [4]), > 3000 nM.
For `CNCCC(OCc1ccc(N2CCN(C)c3nc(C)ncc3C2=O)cc1)c1ccccc1` (stereo not drawn) [Example 353, 2,9-dimethyl-6-(4-((3-(methylamino)-1-phenylpropoxy)methyl)phenyl)-6,7,8,9-tetrahydro-5H-pyrimido[4,5-e][1,4]diazepin-5-one], the Ki was < 100 nM in experiment [1], > 3000 nM in experiment [2] (setting [3]) and > 3000 nM in experiment [2] (setting [4]).
Regarding `CCc1ncc2c(n1)N(C)CCN(c1cccc(COC(CCNC)c3ccccc3)c1)C2=O` (stereo not drawn) [Example 354, 2-ethyl-9-methyl-6-(3-((3-(methylamino)-1-phenylpropoxy)methyl)phenyl)-6,7,8,9-tetrahydro-5H-pyrimido[4,5-e][1,4]diazepin-5-one], the Ki in experiment [1] fell in the range of 100 to 500 nM; in experiment [2] (setting [3]) it was 500 to 3000 nM; in experiment [2] (setting [4]), 500 to 3000 nM.
As for `CNCC(OCc1ccc(N2CCN(C)c3nc(C)ncc3C2=O)cc1)c1ccccc1` (stereo not drawn) [Example 355, 2,9-dimethyl-6-(4-((2-(methylamino)-1-phenylethoxy)methyl)phenyl)-6,7,8,9-tetrahydro-5H-pyrimido[4,5-e][1,4]diazepin-5-one], the values for the Ki in experiment [1], in experiment [2] (setting [3]) and in experiment [2] (setting [4]) were < 100 nM, > 3000 nM and > 3000 nM, respectively.
